Experimental data from patent US12559464B2, “Quinazolinone dione compounds and uses thereof” (Edgewise Therapeutics, Inc., priority 2023, dated 2026).

Legend:
[1] = target: T1, myosin ATPase, Porcine Ventricle myofibrils (Sus scrofa, UniProt P79293); assay: Myofibril ATPase assay, porcine ventricle myofibrils; assay type: biochemical, porcine (Yucatan minipigs); details: concentration required to reduce myosin ATP-ase activity by 25%; Porcine Ventricle Prep pCa 25 GEOM_MEAN
T1 construct: Myofibrils from porcine cardiac muscle was isolated from the left ventricle of Yucatan minipigs; tissue Exemplar Genetics; host or cells: left ventricle of Yucatan minipigs, myofibrils
T1 sequence (P79293 whole entry): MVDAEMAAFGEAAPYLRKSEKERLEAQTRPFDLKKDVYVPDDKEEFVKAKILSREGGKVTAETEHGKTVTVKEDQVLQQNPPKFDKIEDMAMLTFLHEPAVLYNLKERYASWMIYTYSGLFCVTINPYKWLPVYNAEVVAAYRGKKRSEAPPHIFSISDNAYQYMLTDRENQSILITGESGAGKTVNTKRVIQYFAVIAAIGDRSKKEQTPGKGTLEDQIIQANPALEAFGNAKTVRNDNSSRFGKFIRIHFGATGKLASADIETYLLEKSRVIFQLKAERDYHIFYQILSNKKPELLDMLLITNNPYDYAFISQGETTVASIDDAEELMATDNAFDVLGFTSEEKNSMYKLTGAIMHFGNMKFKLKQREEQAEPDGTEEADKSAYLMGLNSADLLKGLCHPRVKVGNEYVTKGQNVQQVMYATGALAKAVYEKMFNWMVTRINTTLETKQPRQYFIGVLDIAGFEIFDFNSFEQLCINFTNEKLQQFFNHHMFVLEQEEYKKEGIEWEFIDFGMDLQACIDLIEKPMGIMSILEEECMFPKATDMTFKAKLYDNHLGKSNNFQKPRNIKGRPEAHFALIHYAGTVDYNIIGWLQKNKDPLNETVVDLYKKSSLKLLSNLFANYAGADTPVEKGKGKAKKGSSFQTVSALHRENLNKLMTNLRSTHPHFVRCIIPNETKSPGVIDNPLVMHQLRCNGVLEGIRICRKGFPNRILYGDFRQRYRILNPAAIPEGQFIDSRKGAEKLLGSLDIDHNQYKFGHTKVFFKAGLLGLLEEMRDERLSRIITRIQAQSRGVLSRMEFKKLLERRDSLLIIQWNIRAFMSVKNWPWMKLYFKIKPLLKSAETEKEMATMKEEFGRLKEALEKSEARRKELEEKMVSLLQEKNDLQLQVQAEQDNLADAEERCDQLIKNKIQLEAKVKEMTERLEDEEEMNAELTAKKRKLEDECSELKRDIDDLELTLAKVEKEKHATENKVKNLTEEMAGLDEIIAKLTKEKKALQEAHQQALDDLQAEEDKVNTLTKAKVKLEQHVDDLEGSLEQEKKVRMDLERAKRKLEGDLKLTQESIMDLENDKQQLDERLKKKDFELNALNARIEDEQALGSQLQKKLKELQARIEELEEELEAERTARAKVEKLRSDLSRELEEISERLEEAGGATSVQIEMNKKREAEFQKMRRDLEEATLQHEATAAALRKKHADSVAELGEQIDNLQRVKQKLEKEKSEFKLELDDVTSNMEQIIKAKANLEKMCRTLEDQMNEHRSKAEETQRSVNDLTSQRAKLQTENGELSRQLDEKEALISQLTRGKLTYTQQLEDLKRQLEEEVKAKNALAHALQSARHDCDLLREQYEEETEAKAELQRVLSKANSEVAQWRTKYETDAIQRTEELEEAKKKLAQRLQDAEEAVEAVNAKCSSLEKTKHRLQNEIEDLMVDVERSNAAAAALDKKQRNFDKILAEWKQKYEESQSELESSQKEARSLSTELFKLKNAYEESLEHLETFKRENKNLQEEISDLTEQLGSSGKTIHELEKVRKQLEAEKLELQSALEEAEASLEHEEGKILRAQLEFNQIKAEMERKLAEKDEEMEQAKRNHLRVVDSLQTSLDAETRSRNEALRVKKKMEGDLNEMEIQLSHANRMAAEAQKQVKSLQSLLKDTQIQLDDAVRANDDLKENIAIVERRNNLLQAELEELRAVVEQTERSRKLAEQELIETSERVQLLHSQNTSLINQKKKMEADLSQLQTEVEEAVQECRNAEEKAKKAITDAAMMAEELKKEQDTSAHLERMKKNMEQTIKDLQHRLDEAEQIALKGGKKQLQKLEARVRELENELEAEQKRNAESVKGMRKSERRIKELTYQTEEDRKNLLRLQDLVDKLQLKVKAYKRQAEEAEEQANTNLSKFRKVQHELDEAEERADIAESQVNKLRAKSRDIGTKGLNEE
How it was run: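 Myofibrils from Yucatan minipig left ventricle; ADP production coupled via PK-LDH to NADH loss, read kinetically at 340 nm every 1.5–2 min for 75 min in PIPES/MgCl2 pH 7.0 buffer. Slopes normalized to vehicle and fit to 4-parameter logistic; values are concentrations giving 75% (inhibition) or 125% (activation) of vehicle activity.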

[2] = test system: myosin ATPase, Porcine Atria myofibrils; assay: Myofibril ATPase assay, porcine atria myofibrils; assay type: biochemical; details: concentration required to reduce myosin ATP-ase activity by 25%; Porcine Atria Prep pCa 25 GEOM_MEAN
[3] = test system: myosin ATPase, Rabbit Psoas myofibrils; assay: Myofibril ATPase assay, rabbit psoas (skeletal) myofibrils; assay type: biochemical; details: Rabbit Psoas Prep pCa 25 GEOM_MEAN; for Rabbit Psoas EC25 (Y75 value): concentration required to reduce myosin ATP-ase activity by 25%

Structure (SMILES)	Porcine Ventricle EC25 (Y75 value) [1] [µM]	Porcine Atria EC25 (Y75 value) [2] [µM]	Rabbit Psoas EC25 (Y75 value) [3] [µM]	Rabbit Psoas Y125 value (marked #) ([3]; concentration required to increase myosin ATP-ase activity by 25%)
Cc1ccc2[nH]c(=O)n(CC(=O)N[C@@H](C)c3ccc(F)cc3F)c(=O)c2c1 [Compound 51, (S)-N-(1-(2,4-difluorophenyl)ethyl)-2-(6-methyl-2,4-dioxo-1,4-dihydroquinazolin-3(2H)-yl)acetamide]	13.83	0.2427	0.984	–
CC(NC(=O)Cn1c(=O)[nH]c2ccccc2c1=O)c1cnccn1 (stereo not drawn) [Compound 215, 2-(2,4-dioxo-1,4-dihydroquinazolin-3(2H)-yl)-N-(1-(pyrazin-2-yl)ethyl)acetamide]	45.3	23.9	100	–
C[C@H](NC(=O)Cn1c(=O)[nH]c2cc(Cl)ccc2c1=O)c1ccc(F)cc1F [Compound 407, (S)-2-(7-chloro-2,4-dioxo-1,4-dihydroquinazolin-3(2H)-yl)-N-(1-(2,4-difluorophenyl)ethyl)acetamide]	100	0.3539	7.16	–
C[C@H](NC(=O)Cn1c(=O)[nH]c2ccc(F)cc2c1=O)c1ncc(C#N)cn1 (single isomer, unassigned) [Compound 2]	100	24.53	86.83	–
CN1CC(NC(=O)Cn2c(=O)[nH]c3ccccc3c2=O)c2c(F)cc(F)cc2C1=O (stereo not drawn) [Compound 43, N-(5,7-difluoro-2-methyl-1-oxo-1,2,3,4-tetrahydroisoquinolin-4-yl)-2-(2,4-dioxo-1,4-dihydroquinazolin-3(2H)-yl)acetamide]	100	100	58.79	–
C[C@H](NC(=O)Cn1c(=O)[nH]c2cc(C(F)(F)F)ccc2c1=O)c1ccc(F)cc1F [Compound 405, (S)-N-(1-(2,4-difluorophenyl)ethyl)-2-(2,4-dioxo-7-(trifluoromethyl)-1,4-dihydroquinazolin-3(2H)-yl)acetamide]	100	100	100	–
C[C@H](NC(=O)[C@@H](C)n1c(=O)[nH]c2ccccc2c1=O)c1ccc(F)cc1F (single isomer, unassigned) [Compound 101]	87.37	1.036	1.521	–
C[C@@H](NC(=O)Cn1c(=O)[nH]c2ccc(C#N)cc2c1=O)c1ncc(C#N)cc1F (single isomer, unassigned) [Compound 15]	100	4.31	100	–
C[C@H](NC(=O)[C@H](CC1CC1)n1c(=O)[nH]c2ccccc2c1=O)c1ncc(F)cc1F (single isomer, unassigned) [Compound 211]	100	100	100	–
C[C@H](NC(=O)[C@H](C)n1c(=O)[nH]c2ccc(F)c(F)c2c1=O)c1ccc(F)cc1F [Compound 38, (S)-2-(5,6-difluoro-2,4-dioxo-1,4-dihydroquinazolin-3(2H)-yl)-N-((S)-1-(2,4-difluorophenyl)ethyl)propanamide]	3.995	0.185	0.422	–
C[C@H](NC(=O)[C@H](CC1CC1)n1c(=O)[nH]c2ccccc2c1=O)c1ccc(F)cc1F (single isomer, unassigned) [Compound 501]	50.21	100	84.531	–

Next, values leading:

Porcine Ventricle EC25 (Y75 value) [1] [µM]	Porcine Atria EC25 (Y75 value) [2] [µM]	Rabbit Psoas EC25 (Y75 value) [3] [µM]	Rabbit Psoas Y125 value (marked #) ([3]; concentration required to increase myosin ATP-ase activity by 25%)	Structure (SMILES)
0.075	0.07	0.023	–	Cc1c(F)ccc2[nH]c(=O)n(CC(=O)N[C@@H]3COc4cc(C#N)cnc43)c(=O)c12 (single isomer, unassigned) [Compound 701]
100	100	100	–	COc1ccc2c(=O)n(CC(=O)N[C@@H](C)c3ccc(F)cc3F)c(=O)[nH]c2c1 [Compound 142, (S)-N-(1-(2,4-difluorophenyl)ethyl)-2-(7-methoxy-2,4-dioxo-1,4-dihydroquinazolin-3(2H)-yl)acetamide]
100	100	100	–	CC(NC(=O)Cn1c(=O)[nH]c2ccccc2c1=O)c1ccco1 (stereo not drawn) [Compound 604, 2-(2,4-dioxo-1,4-dihydroquinazolin-3(2H)-yl)-N-(1-(furan-2-yl)ethyl)acetamide]
100	100	100	–	Cc1ccc(C(NC(=O)Cn2c(=O)[nH]c3ccccc3c2=O)c2ccccc2)cc1C (stereo not drawn) [Compound 516, N-((3,4-dimethylphenyl)(phenyl)methyl)-2-(2,4-dioxo-1,4-dihydroquinazolin-3(2H)-yl)acetamide]
100	100	100	–	C[C@H](NC(=O)Cn1c(=O)[nH]c2c(Cl)cccc2c1=O)c1ccc(F)cc1F [Compound 408, (S)-2-(8-chloro-2,4-dioxo-1,4-dihydroquinazolin-3(2H)-yl)-N-(1-(2,4-difluorophenyl)ethyl)acetamide]
14.04	0.57	5.743	–	C[C@H](NC(=O)Cn1c(=O)[nH]c2ccc(C#N)cc2c1=O)c1ncc(C#N)cc1F (single isomer, unassigned) [Compound 16]
59.48	56.82	–	24.3^# μM	CC(C)C[C@@H](C(=O)N[C@@H](C)c1ccc(F)cc1F)n1c(=O)[nH]c2ccccc2c1=O (single isomer, unassigned) [Compound 31]
100	100	100	–	C[C@H](NC(=O)Cn1c(=O)[nH]c2ncncc2c1=O)c1ccc(F)cc1F [Compound 95, (S)-N-(1-(2,4-difluorophenyl)ethyl)-2-(2,4-dioxo-1,4-dihydropyrimido[4,5-d]pyrimidin-3(2H)-yl)acetamide]
100	100	4.593	–	C[C@@H](NC(=O)Cn1c(=O)[nH]c2cccc(F)c2c1=O)c1ncc(C#N)cc1F (single isomer, unassigned) [Compound 207]
0.707	0.1149	0.0495	–	Cc1cccc2[nH]c(=O)n(CC(=O)N[C@@H](C)c3ccc(F)cc3F)c(=O)c12 [Compound 73, (S)-N-(1-(2,4-difluorophenyl)ethyl)-2-(5-methyl-2,4-dioxo-1,4-dihydroquinazolin-3(2H)-yl)acetamide]
100	79.37	100	–	CC(NC(=O)Cn1c(=O)[nH]c2ccccc2c1=O)c1cccc(F)c1 (stereo not drawn) [Compound 519, 2-(2,4-dioxo-1,4-dihydroquinazolin-3(2H)-yl)-N-(1-(3-fluorophenyl)ethyl)acetamide]
